From ChEMBL document CHEMBL5260805, “Therapeutic journey of 2,4-thiazolidinediones as a versatile scaffold: An insight into structure activity relationship” (Eur J Med Chem, 2017)
≈ marks a conversion by molar mass, not a printed value.

Legend:
Rattus norvegicus [1] = species: Rattus norvegicus; assay: Antidiabetic activity in Wistar rat assessed as reduction in blood glucose level after 120 mins; assay type: functional; conditions: 2 h
Candida albicans = assay: Antifungal activity against Candida albicans; assay type: functional
Pichia kudriavzevii = assay: Antifungal activity against Candida krusei; assay type: functional
Candida parapsilosis = assay: Antifungal activity against Candida parapsilosis; assay type: functional; conditions: Lodderomyces parapsilosis
Nakaseomyces glabratus = assay: Antifungal activity against Candida glabrata; assay type: functional
Salmonella typhimurium = assay: Antibacterial activity against Salmonella typhimurium; assay type: functional, Salmonella enterica subsp. enterica serovar Typhimurium; conditions: Salmonella enterica
Pseudomonas aeruginosa [2] = assay: Antibacterial activity against Pseudomonas aeruginosa; assay type: functional
Bacillus subtilis = assay: Antibacterial activity against Bacillus subtilis; assay type: functional
Staphylococcus aureus [3] = assay: Antibacterial activity against Staphylococcus aureus; assay type: functional
Mus musculus [4] = species: Mus musculus; assay: Antihyperglycemic activity in sucrose loaded mouse model assessed as decrease in blood glucose level; assay type: functional; parameters: scale not given: the % may be the effect or the level left
Mus musculus [5] = assay: Hypolipidemic activity in db/db mouse assessed as reduction in triglyceride level at 10 mg/kg; assay type: functional; parameters: scale not given: the % may be the effect or the level left
Mus musculus [6] = assay: Hypoglycemic activity in db/db mouse assessed as reduction in blood glucose level at 10 mg/kg; assay type: functional; parameters: scale not given: the % may be the effect or the level left
Rattus norvegicus [7] = species: Rattus norvegicus; assay: Antidiabetic activity in Wistar rat assessed as increase in glucose uptake in absence of insulin after 45 mins; assay type: functional; conditions: 0.75 h
Rattus norvegicus [8] = species: Rattus norvegicus; assay: Antidiabetic activity in Wistar rat assessed as increase in glucose uptake in presence of insulin after 45 mins; assay type: functional; conditions: 0.75 h
Aspergillus niger [9] = assay: Antifungal activity against Aspergillus niger; assay type: functional
[10] = molecular target: Hexokinase-4 (Homo sapiens) (UniProt P35557); assay: Agonist activity at glucokinase (unknown origin) assessed as fold increase at 10 uM by luciferase reporter gene assay; conditions: filed as agonist
[11] = molecular target: Peroxisome proliferator-activated receptor gamma (Homo sapiens) (UniProt P37231); assay: Agonist activity at PPARgamma (unknown origin) assessed as fold increase at 10 uM by luciferase reporter gene assay; conditions: filed as agonist
Staphylococcus aureus [12] = assay: Antibacterial activity against Staphylococcus aureus ATCC 9144; assay type: functional
Aspergillus niger [13] = assay: […] activity against Aspergillus niger ATCC-9029; assay type: functional
[14] = test system: Staphylococcus epidermidis; assay: Antibacterial activity against Staphylococcus epidermidis ATCC-155; assay type: functional
Pseudomonas aeruginosa [15] = assay: Antibacterial activity against Pseudomonas aeruginosa […]; assay type: functional
Aspergillus fumigatus = assay: […] activity against Aspergillus fumigatus ATCC-46645; assay type: functional
Escherichia coli [16] = assay: Antibacterial activity against Escherichia coli ATCC 25922; assay type: functional
Rattus norvegicus [17] = species: Rattus norvegicus; assay: Hypolipidemic activity in alloxan induced diabetic rat model assessed as increase in HDL; assay type: functional
Rattus norvegicus [18] = species: Rattus norvegicus; assay: Hypolipidemic activity in alloxan induced diabetic rat model assessed as increase in HDL/LDL ratio; assay type: functional
Mus musculus [19] = species: Mus musculus; assay: Hypolipidemic activity in KKAY mouse assessed as reduction in triglyceride level; assay type: functional
Mus musculus [20] = species: Mus musculus; assay: Hypoglycemic activity in KKAY mouse assessed as reduction in blood glucose level; assay type: functional
[21] = molecular target: Xanthine dehydrogenase/oxidase (Homo sapiens, UniProt P47989); assay: Inhibition of human milk xanthine oxidase relative to control
Escherichia coli [22] = assay: Antibacterial activity against Escherichia coli; assay type: functional
[23] = Inhibition of bovine lens ALR2; assay type: tissue-based, Bos taurus
[24] = Inhibition of bacterial peptide deformylase; parameters: species or system Bacteria
[25] = molecular target: Peroxisome proliferator-activated receptor gamma (Homo sapiens) (UniProt P37231); assay: Transactivation of PPARgamma (unknown origin) expressed in HEK293 cells at 10 uM after 24 hrs by luminometer assay; assay type: cell-based; conditions: filed as activator
Mus musculus [26] = assay: Hypoglycemic activity in db/db mouse assessed as reduction in blood glucose level at 30 mg/kg/day, po administered for 6 days; assay type: functional; parameters: scale not given: the % may be the effect or the level left; conditions: time 6 day
Mus musculus [27] = assay: Hypolipidemic activity in db/db mouse assessed as reduction in triglyceride level at 30 mg/kg/day, po administered for 6 days; assay type: functional; parameters: scale not given: the % may be the effect or the level left; conditions: time 6 day
Mus musculus [28] = assay: Hypolipidemic activity in C57BL/6J db/db mouse assessed as reduction in triglyceride level at 200 mg/kg; assay type: functional; parameters: scale not given: the % may be the effect or the level left
Mus musculus [29] = assay: Hypoglycemic activity in C57BL/6J db/db mouse assessed as reduction in blood glucose level at 50 mg/kg after 3 days; assay type: functional; parameters: scale not given: the % may be the effect or the level left; conditions: time 3 day
[30] = molecular target: Peroxisome proliferator-activated receptor gamma (Homo sapiens, UniProt P37231); assay: Agonist activity at human PPARgamma transfected in HEK293 cells assessed increase in luciferase activity incubated for 24 hrs; assay type: cell-based
[31] = molecular target: Human immunodeficiency virus type 1 reverse transcriptase (Human immunodeficiency virus 1) (UniProt Q72547); assay: Inhibition of HIV-1 reverse transcriptase relative to control; conditions: concentration not given here
[32] = molecular target: Human immunodeficiency virus type 1 reverse transcriptase (Human immunodeficiency virus 1, UniProt Q72547); assay: Inhibition of HIV-1 reverse transcriptase
Klebsiella pneumoniae = assay: Antibacterial activity against Klebsiella pneumoniae; assay type: functional
RAW264.7 = assay: Inhibition of LPS-induced NO production in mouse RAW264.7 cells; assay type: functional
Mus musculus [33] = assay: Hypoglycemic activity in db/db mouse assessed as reduction in blood glucose level at 100 mg/kg/day; assay type: functional
[34] = Bacillus subtilis, read-out: MIC

## COc1cc(/C=C2\SC(=O)N(CC(=O)O)C2=O)cc(OC)c1OC
Rattus norvegicus [1]
  Activity: 104 mg/dL

## O=C(CN1C(=O)S/C(=C\c2cccc(-c3cc(=O)c4ccccc4o3)c2)C1=O)c1ccc(F)cc1
Candida albicans
  MIC: 6.25 µg/mL (≈ 12.9 µM)
Pichia kudriavzevii
  MIC: 6.25 µg/mL (≈ 12.9 µM)
Candida parapsilosis
  MIC: 6.25 µg/mL (≈ 12.9 µM)
Nakaseomyces glabratus
  MIC: 6.25 µg/mL (≈ 12.9 µM)

## O=C(O)c1cn(C2CC2)c2cc(N3CCNCC3)c(F)cc2c1=O [CIPROFLOXACIN]
Salmonella typhimurium
  MIC: 0.78 µg/mL (≈ 2.35 µM)
Pseudomonas aeruginosa [2]
  MIC: 0.78 µg/mL (≈ 2.35 µM)
Bacillus subtilis; [34]
  MIC: 0.78 µg/mL (≈ 2.35 µM)
Staphylococcus aureus [3]
  MIC: 0.78 µg/mL (≈ 2.35 µM)

## CCOC(=O)CN1C(=O)SC(Cc2ccc(OC(C)=O)cc2)C1=O (stereo unspecified)
Mus musculus [4]
  Activity: -26.8%

## Cc1nn(COc2ccc(CC3SC(=O)NC3=O)cc2)c(=O)c2ccccc12 (stereo unspecified)
Mus musculus [5]
  Activity: 68%
Mus musculus [6]
  Activity: 72%

## O=C(CN1C(=O)S/C(=C\c2ccc(Br)cc2)C1=O)Nc1ccc(C(=O)O)cc1
Rattus norvegicus [7]
  Activity: 34.71 mg/dL
Rattus norvegicus [8]
  Activity: 47.65 mg/dL

## OC(Cn1cncn1)(Cn1cncn1)c1ccc(F)cc1F [FLUCONAZOLE]
Aspergillus niger [9]
  MIC: 12.5 µg/mL (≈ 40.8 µM)
Candida albicans
  MIC: 12.5 µg/mL (≈ 40.8 µM)

## CCOC(=O)CN1C(=O)SC(Cc2ccc(O)cc2)C1=O (stereo unspecified)
Mus musculus [4]
  Activity: -26.7%

## CC(C)OC(=O)c1ccc(NC(=O)Cc2ccc(/C=C3\SC(=O)NC3=O)cc2[N+](=O)[O-])nc1
[10]
  fold change (FC): 2.9
[11]
  Activity: 48%

## CN(C)C(=N)NC(=N)N [METFORMIN]
Mus musculus [4]
  Activity: -34.1%

## COC(=O)CN1C(=O)S/C(=C\c2cn(CC(=O)OC)cn2)C1=O
Staphylococcus aureus [12]
  MIC: 3.8 µg/mL (≈ 11.2 µM)
Aspergillus niger [13]
  MIC: 7.9 µg/mL (≈ 23.3 µM)
[14]
  MIC: 2.2 µg/mL (≈ 6.48 µM)
Pseudomonas aeruginosa [15]
  MIC: 2.8 µg/mL (≈ 8.25 µM)
Aspergillus fumigatus
  MIC: 1.7 µg/mL (≈ 5.01 µM)
Escherichia coli [16]
  MIC: 1.6 µg/mL (≈ 4.72 µM)

## CN(CCOc1ccc(CC2SC(=O)NC2=O)cc1)Cc1nc(N2CCOCC2)nc(N2CCOCC2)n1 (stereo unspecified)
Rattus norvegicus [17]
  Activity: 3.16%
Rattus norvegicus [18]
  Ratio: 4.02

## CN(CCOc1ccc(CC2SC(=O)NC2=O)cc1)c1cc(-c2ccccc2)ccn1 (stereo unspecified)
Mus musculus [19]
  ED25: 2.5 mg/kg/day
Mus musculus [20]
  ED25: 0.02 mg/kg/day

## O=C(CN1C(=O)S/C(=C\c2cccc(-c3cc(=O)c4ccccc4o3)c2)C1=O)c1ccc([N+](=O)[O-])cc1
Candida albicans
  MIC: 6.25 µg/mL (≈ 12.2 µM)
Pichia kudriavzevii
  MIC: 6.25 µg/mL (≈ 12.2 µM)
Candida parapsilosis
  MIC: 6.25 µg/mL (≈ 12.2 µM)
Nakaseomyces glabratus
  MIC: 6.25 µg/mL (≈ 12.2 µM)

## CCc1ccc(CCOc2ccc(CC3SC(=O)N(CCCCCCC#N)C3=O)cc2)nc1 (stereo unspecified)
[21]
  inhibition (INH): 72%

## COc1cc(/C=C2\SC(=O)NC2=O)cc(OC)c1OC
Escherichia coli [22]
  MIC: 250 µg/mL (≈ 847 µM)
Staphylococcus aureus [3]
  MIC: 200 µg/mL (≈ 677 µM)

## O=C(O)CN1C(=O)S/C(=C\c2cccc(Oc3ccccc3)c2)C1=O
[23]
  IC50: 130 nM

## N#Cc1ccccc1-c1ccc(CN2C(=O)S/C(=C\c3c(Cl)cccc3Cl)C2=O)cc1
[24]
  IC50: 132000 nM
Escherichia coli [22]
  MIC: 63.6 µg/mL (≈ 137 µM)
Bacillus subtilis
  MIC: 100 µg/mL (≈ 215 µM)
Bacillus subtilis; [34]
  MIC: 63.6 µg/mL (≈ 137 µM)

## COc1cc(Br)cc(CC2SC(=O)NC2=O)c1CC(=O)O (stereo unspecified)
[25]
  Activity: 65%

## CC1(C)S[C@@H]2[C@H](NC(=O)[C@H](N)c3ccccc3)C(=O)N2[C@H]1C(=O)O [AMPICILLIN]
Candida albicans
  MIC: 500 µg/mL (≈ 1430 µM)
Escherichia coli [22]
  MIC: 100 µg/mL (≈ 286 µM)

## CCc1nc(C)cc(=O)n1CCOc1ccc(CC2SC(=O)NC2=O)cc1 (stereo unspecified)
Mus musculus [26]
  Activity: 73%
Mus musculus [27]
  Activity: 85%

## CN(CCOc1ccc(CC2SC(=O)NC2=O)cc1)c1ccccn1 (stereo unspecified) [ROSIGLITAZONE]
Mus musculus [26]
  Activity: 65%
Mus musculus [27]
  Activity: 41%
Mus musculus [19]
  ED25: > 30 mg/kg/day
Mus musculus [4]
  Activity: -11.6%
Rattus norvegicus [7]
  Activity: 36 mg/dL
Rattus norvegicus [8]
  Activity: 50.5 mg/dL
Mus musculus [20]
  ED25: 4.1 mg/kg/day

## O=C1NC(=O)C(Cc2ccc(OCCn3ccc4ccccc43)cc2)S1 (stereo unspecified)
Mus musculus [28]
  Activity: 77%
Mus musculus [29]
  Activity: 60%

## COC(=O)/C(=C\c1cc(OC)cc(OC)c1)c1ccc(Oc2ccc(CC3SC(=O)NC3=O)cc2)cc1 (stereo unspecified)
[30]
  EC50: 284 nM

## CCc1ccc(CCOc2ccc(CC3SC(=O)NC3=O)cc2)nc1 (stereo unspecified) [PIOGLITAZONE]
Mus musculus [5]
  Activity: 46.9%
Rattus norvegicus [1]
  Activity: 115 mg/dL
Mus musculus [6]
  Activity: 46.2%

## Cc1ccc(C)c(/C=C2\SC(=O)N(CCC(=O)Nc3ccccc3O)C2=O)c1
Salmonella typhimurium
  MIC: 6.25 µg/mL (≈ 15.8 µM)
Aspergillus niger [9]
  MIC: 25 µg/mL (≈ 63.1 µM)
Candida albicans
  MIC: 12.5 µg/mL (≈ 31.5 µM)
[31]
  inhibition: 73%
Pseudomonas aeruginosa [2]
  MIC: 6.25 µg/mL (≈ 15.8 µM)
Escherichia coli [22]
  MIC: 6.25 µg/mL (≈ 15.8 µM)
[32]
  IC50: 1310 nM
Klebsiella pneumoniae
  MIC: 6.25 µg/mL (≈ 15.8 µM)
Bacillus subtilis; [34]
  MIC: 6.25 µg/mL (≈ 15.8 µM)

## CC(C)c1ccc(N(C)CCOc2ccc(CC3SC(=O)NC3=O)cc2)cc1 (stereo unspecified)
RAW264.7
  inhibition (INH): 51.5%

## Cc1c(C)c2c(c(C)c1OCc1ccccc1)C(CN1CCC[C@H]1COc1ccc(/C=C3\SC(=O)NC3=O)cc1)C(C)(C)O2 (stereo partly specified)
Mus musculus [33]
  Activity: 8 mM
